{"source": "patent US20080081333A1", "about": "“METHYLATED PROMOTERS AS BIOMARKERS OF COLON CANCER” (UNIVERSITY OF MARYLAND, BALTIMORE, priority 2006, published 2008)", "key": {"[1]": {"tested_on": "HT29 and HCT116", "test": "cDNA microarray of colon cancer cell lines treated with 5-aza-dC versus untreated cells", "assay_type": "cell-based, human", "details": "in at least one of HT29, HCT116; 10 μM 84 hours or 1 μM 24 hours then 60 hours drug-free; log ratio greater than 0.75 (1.65-fold)", "description": "(§1) Next, a cDNA microarray analysis of two colon cancer cell lines was performed, comparing cells treated with 5-aza-dC and untreated cells. Briefly, the colon cancer cell lines HT29 and HCT116 were seeded at a density of 4×10^5 cells per 75 cm^2 culture flask and incubated for 24 hours in growth media. The cells were then treated with 5-aza-dC in either one of the following conditions: a) 10 μM 5-aza-dC for 84 hours or b) 1 μM 5-aza-dC for 24 hours followed by 60 hours of 5-aza-dC-free growth. These two 5-aza-dC treatment regimens were employed to obtain expression data under diverse cellular conditions: the former regimen focused on maximum DNA demethylation, while the latter regimen focused on moderate DNA demethylation to minimize damage to cell viability. […] Genes with very low expression levels in post-treatment specimens were eliminated from further analyses. The cut-off criterion was defined as median signal intensity less than median background intensity plus 1 standard deviation."}, "[2]": {"tested_on": "HCT116", "test": "quantitative MSP and real-time RT-PCR with and without 5-aza-dC treatment", "assay_type": "cell-based, human", "details": "HCT116, after 5-aza-dC treatment", "description": "as §1\n(§2) Tumor samples were snap frozen on dry ice and stored at −80° C. After thawing, DNA was extracted from samples and treated with bisulfite prior to MSP. Briefly, DNA was extracted from all samples and treated with bisulfite to convert unmethylated cytosines to uracils prior to methylation-specific PCR (MSP) as described previously in Mori, Y., et al. Cancer Res. 64:2434-38 (2004), which is incorporated by reference. DNA methylation status and levels of the 4 candidate markers were determined with real-time quantitative MSP using the ABI 7900 HT Sequence Detection (Taqman) System, as described previously in Sato F., et al., Cancer Res. 62:6820-22 (2002), which is incorporated by reference. Primers and probes for quantitative MSP of (SHP-1, DcR1, RARβ, and DcR2) are disclosed in Takahashi, T. et al, Int'l J. Cancer, 118(4): 924-931 (2005), which is incorporated by reference.\n(§3) DNA methylation status and levels of 5 genes were determined with real-time quantitative MSP using the ABI 7900 HT Sequence Detection (Taqman) System, as described previously in Sato F., et al., Cancer Res. 62:6820-22 (2002), which is incorporated by reference. Primers and probes for quantitative MSP of ENG, MAL, CAV1, TAC1, SST, NELL1 and AKAP12 are below in Tables III and IV.\n(§4) A normalized methylation value (NMV) reflecting the percentage of DNA methylated for the gene of interest (GoI), was defined as follows: NMV=(GoI-S/GoI-FM)/(ACTB-S/ACTB-FM)*100, where GoI-S and GoI-FM represented GoI methylation levels in the Sample and Fully Methylated DNAs, respectively, while ACTB-S and ACTB-FM corresponds to β-Actin in the sample and Fully Methylated (FM) DNAs, respectively.\n(§5) Increased SST and TAC1 methylation levels was also observed in cancers relative to matched normal colonic mucosae from the resection margins (FIG. 2). […] Furthermore, we examined the correlation between promoter methylation and mRNA expression levels of SST and TAC1. For this purpose, we analyzed colon cancer cell lines with and without 5-aza-dC treatment using quantitative real-time PCR. mRNA upregulation occurred for both SST and TAC1 after promoter DNA demethylation by 5-aza-dC treatment (FIG. 4)."}, "[3]": {"tested_on": "HT29", "test": "quantitative MSP and real-time RT-PCR with and without 5-aza-dC treatment", "assay_type": "cell-based, human", "details": "HT29, after 5-aza-dC treatment", "description": "as §1, §2, §3, §4, §5"}, "[4]": {"tested_on": "OE33", "test": "5-Aza-dC treatment of esophageal cancer cell line, qMSP and qRT-PCR", "assay_type": "cell-based", "description": "(§6) Samples and cell lines were treated as in Example 1. Briefly, extracted DNA was treated with bisulfite to convert unmethylated cytosines to uracils prior to MSP. Promoter methylation levels of TAC1 were determined using qMSP with the ABI 7700 Sequence Detection (Taqman) System, using primers and probes described. A normalized methylation value (NMV), reflecting the percentage of DNA methylated for the gene of interest (GoI), was defined as follows: NMV=(GoI-S/GoI-FM)/(ACTB-S/ACTB-FM), where GoI-S and GoI-FM represent GoI methylation levels in the sample and fully methylated DNAs, respectively, while ACTB-S and ACTB-FM correspond to β-Actin in the sample and fully methylated DNAs, respectively.\n(§7) To determine SST mRNA levels, one-step real-time quantitative RT-PCR was performed using a Qiagen QuantiTect Probe RT-PCR Kit (Qiagen, Hilden, Germany) and the ABI 7700 Sequence Detection (Taqman) System. Primers and probes were the same as previously reported. 12 β-Actin was used for normalization of data. A standard curve was generated using serial dilutions of qPCR Reference Total RNA (Clontech, Mountainview, Calif.). The normalized mRNA value (NRV) was calculated according to the following formula for relative expression of target mRNA: NRV=(TarS/TarC)/(ACTB-S/ACTB-C), where TarS and TarC represent levels of mRNA expression for the target gene in sample and control mRNAs, respectively, whereas ACTB-S and ACTB-C correspond to amplified ACTB levels in sample and control mRNAs, respectively.\nTo determine whether SST inactivation was due to promoter hypermethylation in esophageal cancer, 2 esophageal cancer cell lines (KYSE220 and OE33) were subjected to 5-Aza-dC (Sigma, St. Louis, Mo.) treatment. Briefly, 1×10^5 cells/ml were seeded onto a 100 mm dish and grown for 24 h. Then, 1 μl of 5 mM 5-Aza-dC per ml of cells was added every 24 hours for 6 days. DNA and RNA were harvested on day 6.\n(§8) Samples were treated as in Examples 1 and 2. Briefly, to determine AKAP12 mRNA levels, one-step real-time quantitative RT-PCR was performed using a Qiagen QuantiTect Probe RT-PCR Kit (Qiagen, Hilden, Germany) and the ABI 7700 Sequence Detection System (Applied Biosystems, Foster City, Calif.). Primers and probe for AKAP12 were as follows: […]\n(§9) β-actin was used for normalization of data. Primers and probe for β-actin were the same as previously reported. […] Normalized mRNA value (NRV) was calculated according to the following formula for relative expression of target mRNA: NRV=(TarS/TarC)/(ACTB-S/A CTB-C, where TarS and TarC represent levels of mRNA expression for the target gene in sample and control mRNAs, respectively, while ACTB-S and ACTB-C correspond to amplified ACTB levels in sample and control mRNAs, respectively."}, "[5]": {"tested_on": "BIC", "test": "5-Aza-dC treatment of esophageal cancer cell line, qMSP and qRT-PCR", "assay_type": "cell-based", "description": "as §6\n(§10) To determine TAC1 mRNA levels, one-step real-time quantitative RT-PCR was performed using a Qiagen QuantiTect Probe RT-PCR Kit (Qiagen, Hilden, Germany) and the ABI 7700 Sequence Detection (Taqman) System. Primers and probes are described herein. β-Actin was used to normalize data. A standard curve was generated using serial dilutions of qPCR Reference Total RNA (Clontech, Mountainview, Calif.). The normalized mRNA value (NRV) was calculated according to the following formula for relative expression of target mRNA: Expression index=(TarS/TarC)/(ACTB-S/ACTB-C, where TarS and TarC represent levels of mRNA expression for the target gene in the sample and control mRNAs, respectively, whereas ACTB-S and ACTB-C correspond to amplified ACTB levels in the sample and control mRNAs, respectively.\nTo determine whether TAC1 inactivation was due to promoter hypermethylation in esophageal cancer, 2 esophageal cancer cell lines (KYSE220 and BIC) were subjected to 5-Aza-dC (Sigma, St. Louis, Mo.) treatment. Briefly, 1×10^5 cells/ml were seeded onto a 100 mm dish and grown for 24 h. Then, 1 μl of 5 mM 5-Aza-dC per ml of cells was added every 24 hours for 6 days. DNAs and RNAs were harvested on day 6.\nas §8, §9"}, "[6]": {"tested_on": "KYSE220", "test": "5-Aza-dC treatment of esophageal cancer cell line, qMSP and qRT-PCR", "assay_type": "cell-based", "details": "1 μl of 5 mM 5-Aza-dC per ml of cells every 24 hours for 6 days", "description": "as §6, §10, §7\nTo determine whether TAC1 inactivation was due to promoter hypermethylation in esophageal cancer, 2 esophageal cancer cell lines (KYSE220 and BIC) were subjected to 5-Aza-dC (Sigma, St. Louis, Mo.) treatment. Briefly, 1×10^5 cells/ml were seeded onto a 100 mm dish and grown for 24 h. Then, 1 μl of 5 mM 5-Aza-dC per ml of cells was added every 24 hours for 6 days. DNAs and RNAs were harvested on day 6. […]"}, "[7]": {"tested_on": "HCT116 and HT29", "test": "quantitative MSP and real-time RT-PCR with and without 5-aza-dC treatment, five further genes", "assay_type": "cell-based, human", "details": "all five genes, in a colon cancer cell line, after 5-aza-dC treatment", "description": "Next, a cDNA microarray analysis of two colon cancer cell lines was performed, comparing cells treated with 5-aza-dC and untreated cells. Briefly, the colon cancer cell lines HT29 and HCT116 were seeded at a density of 4×10^5 cells per 75 cm^2 culture flask and incubated for 24 hours in growth media. The cells were then treated with 5-aza-dC in either one of the following conditions: a) 10 μM 5-aza-dC for 84 hours or b) 1 μM 5-aza-dC for 24 hours followed by 60 hours of 5-aza-dC-free growth. […]\nTumor samples were snap frozen on dry ice and stored at −80° C. […] DNA methylation status and levels of the 4 candidate markers were determined with real-time quantitative MSP using the ABI 7900 HT Sequence Detection (Taqman) System, as described previously in Sato F., et al., Cancer Res. 62:6820-22 (2002), which is incorporated by reference. Primers and probes for quantitative MSP of (SHP-1, DcR1, RARβ, and DcR2) are disclosed in Takahashi, T. et al, Int'l J. Cancer, 118(4): 924-931 (2005), which is incorporated by reference.\nDNA methylation status and levels of 5 genes were determined with real-time quantitative MSP using the ABI 7900 HT Sequence Detection (Taqman) System, as described previously in Sato F., et al., Cancer Res. 62:6820-22 (2002), which is incorporated by reference. Primers and probes for quantitative MSP of ENG, MAL, CAV1, TAC1, SST, NELL1 and AKAP12 are below in Tables III and IV. […]"}, "[8]": {"details": "OE33, 1 μl of 5 mM 5-Aza-dC per ml of cells every 24 hours for 6 days"}, "[9]": {"details": "1 μl of 5 mM 5-Aza-dC per ml of cells every 24 hours for 6 days"}}, "note": "“Also recorded” adds a separate entry of the source.", "data": [{"molecule": "Nc1ncn([C@H]2C[C@H](O)[C@@H](CO)O2)c(=O)n1", "note": "[5-aza-dC]", "values": [{"measurement": "genes upregulated after 5-aza-dC treatment", "setting": "[1]", "result": 861, "unit": "genes"}, {"measurement": "SST mRNA expression index (EI)", "setting": "[2]", "result": "upregulation"}, {"measurement": "SST promoter methylation index (MI)", "setting": "[2]", "result": "demethylation; also recorded: decreased"}, {"measurement": "TAC1 mRNA expression index (EI)", "setting": "[2]", "result": "upregulation"}, {"measurement": "TAC1 promoter methylation index (MI)", "setting": "[2]", "result": "demethylation; also recorded: decreased"}, {"measurement": "SST mRNA expression index (EI)", "setting": "[3]", "result": "upregulation"}, {"measurement": "SST promoter methylation index (MI)", "setting": "[3]", "result": "demethylation; also recorded: decreased"}, {"measurement": "TAC1 mRNA expression index (EI)", "setting": "[3]", "result": "upregulation"}, {"measurement": "TAC1 promoter methylation index (MI)", "setting": "[3]", "result": "demethylation; also recorded: decreased"}, {"measurement": "NMV of AKAP12", "setting": "[4]; OE33, after 5-Aza-dC treatment", "result": "diminished"}, {"measurement": "mRNA level (NRV) of AKAP12", "setting": "[4]; OE33, after 5-Aza-dC treatment", "result": "increased"}, {"measurement": "NMV of SST", "setting": "[4]; [8]", "result": "diminished"}, {"measurement": "mRNA level (NRV) of SST", "setting": "[4]; [8]", "result": "increased"}, {"measurement": "NMV of TAC1", "setting": "[5]; [9]", "result": "diminished"}, {"measurement": "mRNA level (NRV) of TAC1", "setting": "[5]; [9]", "result": "increased"}, {"measurement": "NMV of AKAP12", "setting": "[5]; after 5-Aza-dC treatment", "result": "diminished"}, {"measurement": "mRNA level (NRV) of AKAP12", "setting": "[5]; after 5-Aza-dC treatment", "result": "increased"}, {"measurement": "NMV of SST", "setting": "[6]", "result": "diminished"}, {"measurement": "NMV of TAC1", "setting": "[6]", "result": "diminished"}, {"measurement": "mRNA level (NRV) of SST", "setting": "[6]", "result": "increased"}, {"measurement": "mRNA level (NRV) of TAC1", "setting": "[6]", "result": "increased"}, {"measurement": "mRNA of NELL1, CAV1, AKAP12, ENG and MAL", "setting": "[7]", "result": "increased; also recorded: upregulation"}, {"measurement": "promoter region DNA methylation of NELL1, CAV1, AKAP12, ENG and MAL", "setting": "[7]", "result": "demethylation; also recorded: decreased"}]}]}
